From patent US10287300B2 (Merck Patent GmbH, priority 2012, dated 2019)

Tests used:
[1] = target: P70S6K (T412E mutant, Millipore) (Homo sapiens (Human), UniProt P23443, T412E); assay: P70S6K enzyme assay; assay type: biochemical; details: 24 μM ATP, 90 min at 25° C.
Protocol: P70S6K inhibitor compounds were diluted and plated in 96 well plates. A reaction mixture including the following components was then added to the compound plate to initiate the enzyme reaction; P70S6K (3 nM, T412E mutant, Millipore) was mixed with 24 μM ATP in an assay buffer containing 100 mM Hepes (pH 7.5), 5 mM MgCl2, 1 mM DTT, 0.015% Brij and 1 μM of the substrate peptide FITC-AHA-AKRRRLSSLRA-OH (derived from the S6 ribosomal protein sequence, FITC=fluorescein isothiocyanate, AHA=6-aminohexanoic acid). The reaction was incubated for 90 min at 25° C., before the addition of 10 mM EDTA to stop the reaction. The proportion of substrate and product (phosphorylated) peptide was analysed on a Caliper Life Sciences Lab Chip 3000, using a pressure of −1.4 psi, and upstream and downstream voltages of −3000 and −700 respectively. Product peaks were resolved before substrate peaks on the resulting chromatograms.

His-AKT (Full Length) = His-AKT (Full Length) (Homo sapiens (Human), UniProt P31749); assay: AKT enzyme assay; assay type: biochemical; details: 160 uM ATP, 90 min at 25° C.
His-AKT (Full Length), sequence (P31749 whole entry): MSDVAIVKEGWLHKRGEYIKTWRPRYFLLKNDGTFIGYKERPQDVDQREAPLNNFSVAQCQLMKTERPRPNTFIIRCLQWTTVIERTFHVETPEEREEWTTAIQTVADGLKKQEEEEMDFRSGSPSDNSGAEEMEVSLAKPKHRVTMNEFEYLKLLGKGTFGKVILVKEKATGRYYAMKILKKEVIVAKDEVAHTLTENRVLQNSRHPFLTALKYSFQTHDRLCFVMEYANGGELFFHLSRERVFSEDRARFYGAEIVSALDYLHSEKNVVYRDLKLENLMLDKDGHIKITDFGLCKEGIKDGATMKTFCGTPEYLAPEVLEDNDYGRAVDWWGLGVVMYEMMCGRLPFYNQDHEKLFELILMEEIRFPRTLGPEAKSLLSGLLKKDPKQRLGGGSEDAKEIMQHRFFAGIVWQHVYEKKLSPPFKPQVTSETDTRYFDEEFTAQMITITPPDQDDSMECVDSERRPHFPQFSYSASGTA
Protocol: A TTP Mosquito liquid handling instrument was used to place 125 nl of the appropriate concentration of inhibitor in 100% DMSO (for a dose response curve calculation) into each well of a 384-well plate. To this reaction components were added to a final volume of 12.5 μl: • 0.1 ng/μl His-AKT (Full Length), (Invitrogen, Part # P2999, Lot #641228C). • 160 uM ATP (Fluka, 02055) • 1 mM DTT (Sigma, D0632) • 1 mM MgCl2 (Sigma, M1028) • 1 μM substrate peptide (sequence FITC-AHA-GRPRTSSFAEG-NH2), • synthesized by Tufts Peptide Synthesis service. • 100 mM HEPES pH 7.5 (Calbiochem, 391338) • 0.015% Brij-35 (Sigma, B4184)
The reaction was incubated for 90 min at 25° C., and then stopped by the addition of 70 μl of Stop buffer (100 mM HEPES pH 7.5, 0.015% Brij-35, 10 mM EDTA (Sigma, E7889)).
The plate was read on a Caliper LC 3000 in an Off-Chip mobility shift assay format, using the following parameters for a 12-sipper chip: screening pressure −2.3 psi, upstream voltage −500, and downstream voltage −3000. These conditions caused unphosphorylated substrate and phosphorylated product peptide to resolve as separate peaks allowing direct measurement of percentage of conversion of substrate to product. The percent conversion was plotted against concentration of inhibitor to produce a sigmoidal dose response curve, from which an IC50 was calculated.

P70S6K (T412E mutant, Millipore), sequence (P23443 whole entry T412E): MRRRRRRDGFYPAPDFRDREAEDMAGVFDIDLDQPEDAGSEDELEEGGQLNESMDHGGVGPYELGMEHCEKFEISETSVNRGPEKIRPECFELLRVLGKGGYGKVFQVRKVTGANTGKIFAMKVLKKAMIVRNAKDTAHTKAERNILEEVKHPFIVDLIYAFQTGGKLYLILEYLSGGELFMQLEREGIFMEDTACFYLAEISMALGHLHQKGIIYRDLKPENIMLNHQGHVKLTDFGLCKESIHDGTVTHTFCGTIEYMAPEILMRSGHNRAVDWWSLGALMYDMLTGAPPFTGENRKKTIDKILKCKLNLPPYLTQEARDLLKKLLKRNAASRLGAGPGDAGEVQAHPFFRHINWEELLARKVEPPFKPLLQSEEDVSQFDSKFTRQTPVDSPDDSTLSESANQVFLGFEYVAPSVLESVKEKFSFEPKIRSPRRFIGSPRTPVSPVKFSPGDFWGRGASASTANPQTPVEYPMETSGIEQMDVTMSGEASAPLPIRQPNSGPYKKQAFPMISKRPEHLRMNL

| IC50 [1] | IC50 (His-AKT (Full Length)) | SMILES |
| --- | --- | --- |
| > 1000 nM | 101 to 500 nM | CN(C)CC(c1ccc(C(F)(F)F)cc1)N1CCN(c2ncnc3c2OCCN3)CC1 (stereo not drawn) [Compound A5, [2-[4-(7,8-Dihydro-6H-pyrimido[5,4-b][1,4]oxazin-4-yl)-piperazin-1-yl]-2-(4-trifluoromethylphenyl)-ethyl]-dimethylamine] |
| 101 to 500 nM | 101 to 500 nM | CN(C)CC(c1ccc(C(F)(F)F)cc1)N1CCN(c2ncnc3c2CCN3)CC1 (stereo not drawn) [Compound A6, [2-[4-(6,7-Dihydro-5H-pyrrolo[2,3-d]pyrimidin-4-yl)-piperazin-1-yl]-2-(4-trifluoromethylphenyl)-ethyl]-dimethylamine] |
| 101 to 500 nM | 25 to 100 nM | CN(C)CC(c1ccc(Cl)cc1)N1CCN(c2ncnc3c2CCCN3)CC1 (stereo not drawn) [Compound A8, {2-(4-Chlorophenyl)-2-[4-(5,6,7,8-tetrahydro-pyrido[2,3-d]pyrimidin-4-yl)-piperazin-1-yl]-ethyl}-dimethylamine] |
| 25 to 100 nM | 25 to 100 nM | CN(C)CC(c1ccc(C(F)(F)F)cc1)N1CCN(c2ncnc3c2CCCN3)CC1 (stereo not drawn) [Compound A9, Dimethyl-[2-[4-(5,6,7,8-tetrahydro-pyrido[2,3-d]pyrimidin-4-yl)-piperazin-1-yl]-2-(4-trifluoromethyl-phenyl)-ethyl]-amine] |
| 501 to 1000 nM | 101 to 500 nM | NCC(c1ccc(C(F)(F)F)cc1)N1CCN(c2ncnc3c2OCCN3)CC1 (stereo not drawn) [Compound A10, 2-[4-(7,8-Dihydro-6H-pyrimido[5,4-b][1,4]oxazin-4-yl)-piperazin-1-yl]-2-(4-trifluoromethylphenyl)-ethylamine] |
| 25 to 100 nM | 101 to 500 nM | NCC(c1ccc(Cl)cc1)N1CCN(c2ncnc3c2CCN3)CC1 (stereo not drawn) [Compound A13, 2-(4-Chloro-phenyl)-2-[4-(6,7-dihydro-5H-pyrrolo[2,3-d]pyrimidin-4-yl)-piperazin-1-yl]-ethylamine] |
| 501 to 1000 nM | 501 to 1000 nM | NCC(c1ccc(F)cc1)N1CCN(c2ncnc3c2CCN3)CC1 (stereo not drawn) [Compound A14, 2-[4-(6,7-Dihydro-5H-pyrrolo[2,3-d]pyrimidin-4-yl)-piperazin-1-yl]-2-(4-fluorophenyl)-ethylamine] |
| 25 to 100 nM | 25 to 100 nM | NCC(c1ccc(C(F)(F)F)cc1)N1CCN(c2ncnc3c2CCCN3)CC1 (stereo not drawn) [Compound A16, 2-[4-(5,6,7,8-Tetrahydro-pyrido[2,3-d]pyrimidin-4-yl)-piperazin-1-yl]-2-(4-trifluoromethyl-phenyl)-ethylamine] |
| 101 to 500 nM | 25 to 100 nM | NCC(c1ccc(Cl)cc1)N1CCN(c2ncnc3c2CCCN3)CC1 (stereo not drawn) [Compound A17, 2-(4-Chloro-phenyl)-2-[4-(5,6,7,8-tetrahydro-pyrido[2,3-d]pyrimidin-4-yl)-piperazin-1-yl]-ethylamine] |
| > 1000 nM | 501 to 1000 nM | NCC(c1ccc(F)cc1)N1CCN(c2ncnc3c2CCCN3)CC1 (stereo not drawn) [Compound A21, 2-(4-Fluoro-phenyl)-2-[4-(5,6,7,8-tetrahydro-pyrido[2,3-d]pyrimidin-4-yl)-piperazin-1-yl]-ethylamine] |
| 101 to 500 nM | 25 to 100 nM | NCC(c1ccc(C(F)(F)F)cc1)C1CCN(c2ncnc3c2CCCN3)CC1 (stereo not drawn) [Compound A22, 2-[1-(5,6,7,8-Tetrahydro-pyrido[2,3-d]pyrimidin-4-yl)-piperidin-4-yl]-2-(4-trifluoromethyl-phenyl)-ethylamine] |

Further lines, the compound ahead of its results:

| SMILES | IC50 [1] | IC50 (His-AKT (Full Length)) |
| --- | --- | --- |
| NCC(c1ccc(C(F)(F)F)cc1)C1CCN(c2ccnc3c2CCCN3)CC1 (stereo not drawn) [Compound A1, 2-(1-(5,6,7,8-tetrahydro-1,8-naphthyridin-4-yl)piperidin-4-yl)-2-(4-(trifluoromethyl)phenyl)ethanamine] | 25 to 100 nM | 101 to 500 nM |
| NCC(c1ccc(C(F)(F)F)cc1)C1CCN(c2ccnc3c2CCN3)CC1 (stereo not drawn) [Compound A2, 2-(1-(2,3-dihydro-1H-pyrrolo[2,3-b]pyridin-4-yl)piperidin-4-yl)-2-(4-(trifluoro-methyl)phenyl)ethanamine] | 25 to 100 nM | 25 to 100 nM |
| NCC(c1ccc(C(F)(F)F)cc1)C1CCN(c2ccnc3c2CCC3)CC1 (stereo not drawn) [Compound A3, 2-(1-(6,7-dihydro-5H-cyclopenta[b]pyridin-4-yl)piperidin-4-yl)-2-(4-(trifluoromethyl)phenyl)ethanamine] | > 1000 nM | > 1000 nM |
| CN(C)CC(c1ccc(Cl)cc1)N1CCN(c2ncnc3c2OCCN3)CC1 (stereo not drawn) [Compound A4, {2-(4-Chlorophenyl)-2-[4-(7,8-dihydro-6H-pyrimido[5,4-b][1,4]oxazin-4-yl)-piperazin-1-yl]-ethyl}-dimethylamine] | > 1000 nM | 101 to 500 nM |
| CN(C)CC(c1ccc(Cl)cc1)N1CCN(c2ncnc3c2CCN3)CC1 (stereo not drawn) [Compound A7, {2-(4-Chlorophenyl)-2-[4-(6,7-dihydro-5H-pyrrolo[2,3-d]pyrimidin-4-yl)-piperazin-1-yl]-ethyl}-dimethylamine] | 101 to 500 nM | 101 to 500 nM |
| NCC(c1ccc(Cl)cc1)N1CCN(c2ncnc3c2OCCN3)CC1 (stereo not drawn) [Compound A11, 2-(4-Chlorophenyl)-2-[4-(7,8-dihydro-6H-pyrimido[5,4-b][1,4]oxazin-4-yl)-piperazin-1-yl]-ethylamine] | 501 to 1000 nM | 101 to 500 nM |
| CN(C)CC(c1ccc(C(F)(F)F)c(F)c1)N1CCN(c2ncnc3c2OCCN3)CC1 (stereo not drawn) [Compound A12, [2-[4-(7,8-Dihydro-6H-pyrimido[5,4-b][1,4]oxazin-4-yl)-piperazin-1-yl]-2-(3-fluoro-4-trifluoromethylphenyl)-ethyl]-dimethylamine] | 501 to 1000 nM | 101 to 500 nM |
| CN(C)CC(c1ccc(Cl)c(F)c1)N1CCN(c2ncnc3c2CCN3)CC1 (stereo not drawn) [Compound A15, {2-(4-Chloro-3-fluoro-phenyl)-2-[4-(6,7-dihydro-5H-pyrrolo[2,3-d]pyrimidin-4-yl)-piperazin-1-yl]ethyl}-dimethylamine] | 101 to 500 nM | 101 to 500 nM |
| CN(C)CC(c1ccc(Cl)c(F)c1)N1CCN(c2ncnc3c2CCCN3)CC1 (stereo not drawn) [Compound A18, {2-(4-Chloro-3-fluoro-phenyl)-2-[4-(5,6,7,8-tetrahydro-pyrido[2,3-d]pyrimidin-4-yl)-piperazin-1-yl]-ethyl}-dimethylamine] | 101 to 500 nM | 25 to 100 nM |
| CN(C)CC(c1ccc(C(F)(F)F)c(F)c1)N1CCN(c2ncnc3c2CCCN3)CC1 (stereo not drawn) [Compound A19, {2-(3-Fluoro-4-trifluoromethyl-phenyl)-2-[4-(5,6,7,8-tetrahydro-pyrido[2,3-d]pyrimidin-4-yl)-piperazin-1-yl]-ethyl}-dimethylamine] | 25 to 100 nM | 25 to 100 nM |
| CN(C)CC(c1ccc(C(F)(F)F)c(F)c1)N1CCN(c2ncnc3c2CCN3)CC1 (stereo not drawn) [Compound A20, [2-[4-(6,7-Dihydro-5H-pyrrolo[2,3-d]pyrimidin-4-yl)-piperazin-1-yl]-2-(3-fluoro-4-trifluoromethyl-phenyl)-ethyl]-dimethylamine] | 101 to 500 nM | 25 to 100 nM |
| NCC(c1ccc(C(F)(F)F)cc1)C1CCN(c2ncnc3c2OCCN3)CC1 (stereo not drawn) [Compound A23, 2-[1-(7,8-Dihydro-6H-pyrimido[5,4-b][1,4]oxazin-4-yl)-piperidin-4-yl]-2-(4-trifluoromethyl-phenyl)-ethylamine] | > 1000 nM | > 1000 nM |
| CN(C)CC(c1ccc(F)cc1)N1CCN(c2ncnc3c2NC(=O)CN3)CC1 (stereo not drawn) [Compound A24, 4-{4-[2-dimethylamino-1-(4-fluoro-phenyl)-ethyl]-piperazin-1-yl}-7,8-dihydro-5H-pteridin-6-one] | > 1000 nM | > 1000 nM |
| CN(C)CC(c1cccc(F)c1)N1CCN(c2ncnc3c2NC(=O)CN3)CC1 (stereo not drawn) [Compound A25, 4-{4-[2-dimethylamino-1-(3-fluoro-phenyl)-ethyl]-piperazin-1-yl}-7,8-dihydro-5H-pteridin-6-one] | > 1000 nM | > 1000 nM |
| CN(C)CC(c1ccc(Cl)cc1)N1CCN(c2ncnc3c2NC(=O)CN3)CC1 (stereo not drawn) [Compound A26, 4-{4-[2-dimethylamino-1-(4-chloro-phenyl)-ethyl]-piperazin-1-yl}-7,8-dihydro-5H-pteridin-6-one] | 501 to 1000 nM | 101 to 500 nM |
| CN(C)CC(c1cccc(Cl)c1)N1CCN(c2ncnc3c2NC(=O)CN3)CC1 (stereo not drawn) [Compound A27, 4-{4-[2-dimethylamino-1-(3-chloro-phenyl)-ethyl]-piperazin-1-yl}-7,8-dihydro-5H-pteridin-6-one] | > 1000 nM | > 1000 nM |
